According to patent publication US20200093843A1, “COMPOUNDS FOR TREATMENT OF INTRACTABLE EPILEPSY AND DOORS SYNDROME” (VIB VZW, priority 2016, published 2020):
“Also recorded” adds a separate entry of the source. Values belong to the compound of their own block, whether it stands above or below them.

Assays:
[1] = described in literature; listed as erufosine; cited from earlier work
[2] = biological target: T1, wild type Sky1-353 (TBC domain of Skywalker) (Drosophila melanogaster, UniProt Q9VIH7); assay: Thermal shift assay, ligand binding to wild type Sky1-353
T1 construct: the TBC domain of Sky (Sky1-353) was expressed from the pET28a vector (Novagen) as an N-terminal His6-tag fusion; His6 (N); made in house; host or cells: E. coli C41 (DE3)
T1 sequence (Q9VIH7 1-353): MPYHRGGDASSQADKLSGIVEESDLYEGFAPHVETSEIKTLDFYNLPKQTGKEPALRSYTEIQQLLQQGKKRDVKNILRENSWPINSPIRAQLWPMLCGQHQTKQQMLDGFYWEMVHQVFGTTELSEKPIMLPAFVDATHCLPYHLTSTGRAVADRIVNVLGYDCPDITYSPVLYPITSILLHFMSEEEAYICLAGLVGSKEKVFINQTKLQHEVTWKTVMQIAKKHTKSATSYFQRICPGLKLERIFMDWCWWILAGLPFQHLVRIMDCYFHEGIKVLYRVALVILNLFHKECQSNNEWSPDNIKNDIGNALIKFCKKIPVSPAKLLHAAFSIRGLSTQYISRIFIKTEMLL
Description: (§1) Thermal unfolding was detected by following SYPRO orange fluorescence using a CFX connect Real-Time PCR System (BioRad). […] The temperature was increased from 20° C. to 80° C. at 0.5° C./30s steps. All measurements were done in triplicate.

Sky1-353 R79C mutant = biological target: T2, Sky1-353 R79C mutant (Drosophila melanogaster, UniProt Q9VIH7, R79C); assay: Thermal shift assay, IP3 binding to Sky1-353 R79C
T2 construct: the TBC domain of Sky (Sky1-353) was expressed from the pET28a vector (Novagen) as an N-terminal His6-tag fusion; His6 (N); made in house; host or cells: E. coli C41 (DE3)
T2 sequence (Q9VIH7 1-353 R79C): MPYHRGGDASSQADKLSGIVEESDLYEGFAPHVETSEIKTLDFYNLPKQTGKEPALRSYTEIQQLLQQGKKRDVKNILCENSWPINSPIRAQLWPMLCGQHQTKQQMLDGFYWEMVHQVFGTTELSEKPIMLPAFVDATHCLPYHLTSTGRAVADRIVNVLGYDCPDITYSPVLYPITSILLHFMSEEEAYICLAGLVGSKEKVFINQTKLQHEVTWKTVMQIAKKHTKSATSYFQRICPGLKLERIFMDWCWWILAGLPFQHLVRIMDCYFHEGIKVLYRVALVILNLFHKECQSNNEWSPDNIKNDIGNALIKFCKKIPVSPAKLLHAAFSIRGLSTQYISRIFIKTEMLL
Description: (§2) The thermal stability of the R79C and R281C mutants in absence of ligands (Tm=32° C.) is somewhat lower compared to the wild type protein (Tm=34° C.) and the R335P mutant (Tm=35° C.). […] These experimental data moreover correspond with our structural data where R79 and R281 both form bifurcated electrostatic interactions with the phosphate on position 5, while R335 forms a single electrostatic interaction with the phosphate group on position 1 (FIG. 3e).
as §1

Sky1-353 R281C mutant = biological target: T3, Sky1-353 R281C mutant (Drosophila melanogaster, UniProt Q9VIH7, R281C); assay: Thermal shift assay, IP3 binding to Sky1-353 R281C; conditions: saturating amount of IP3, R281C mutant
T3 construct: the TBC domain of Sky (Sky1-353) was expressed from the pET28a vector (Novagen) as an N-terminal His6-tag fusion; His6 (N); made in house; host or cells: E. coli C41 (DE3)
T3 sequence (Q9VIH7 1-353 R281C): as the sequence (Q9VIH7 1-353 R79C) above, with C79R, R281C counted along it
Description: as §2, §1

Sky1-353 R335P mutant = biological target: T4, Sky1-353 R335P mutant (Drosophila melanogaster, UniProt Q9VIH7, R335P); assay: Thermal shift assay, IP3 binding to Sky1-353 R335P
T4 construct: the TBC domain of Sky (Sky1-353) was expressed from the pET28a vector (Novagen) as an N-terminal His6-tag fusion; His6 (N); made in house; host or cells: E. coli C41 (DE3)
T4 sequence (Q9VIH7 1-353 R335P): as the sequence (Q9VIH7 1-353 R79C) above, with C79R, R335P counted along it
Description: as §2, §1

[3] = system: sky^1/2 mutants expressing Sky^R79C; assay: Seizure assay in drug-fed flies; assay type: in vivo, Drosophila; conditions: for rescue of seizure-like behaviour: versus mock-treated
Description: To assure that stimulation of PI(4,5)P2 levels in vivo can rescue the defects associated with the Skywalker cationic pocket mutants (Sky^R79C), a commercially available alkyl phospholipid compound, Miltefosine, with known impact on PI(4,5)P2 levels was tested for treatment of gender selected adult 4-7 day old sky^1/2 flies with cationic pocket mutations. For drug feeding, 10-20 flies per treatment vial were maintained in a 12 h light and dark cycle to maintain circadian rhythm, while the analysis was performed on 5 flies per vial for flight, after acclimatization to the test chamber, and 10 flies per vial for stimulation or behavioural challenge by vortexing. In total n=20 flies were analyzed per treatment as well as for the control flies reared on normal food (mock-treated). The effect of Miltefosine (Sigma, M5571) daily administered in dyed food at 50 μg/mL or at 100 μg/mL was tested over a feeding period of 2 and 8 days of drug exposure, after which animal behaviour was analyzed via flight and seizure assays.
Each data point represents averages of 10 animals tested over 8 days and analyzed per drug treatment as well as the control flies reared on normal food (mock-treated).
For drug treatment, a concentration range between […] was tested for daily administration. […] Treatments were performed and were tested over a feeding period of 2 and 8 days of drug exposure, after which animal behaviour was tested in flight and seizure assays.
Adult flies of the genotype sky^1/sky^2 (sky^1/2); nsyb-Gal4/UAS-Sky^R79C or genotypes as indicated, were raised at 21° C. on standard fly food, containing the indicated drugs (Miltefosine, Perifosine, Edelfosine, Erufosine) or on control food prepared without drugs. Animals were collected and gender selected 2 to 5 days after enclosure. On days 2 and 8 of incubation on drugs, flight assays were performed with groups of 5 gender-selected animals in each transparent vial. Following a tap to collect the animals at the bottom of the vial, behaviour was distinguished between walking, jumping and flight. Seizure assays were performed with groups of 10 gender-selected animals that were transferred into transparent vials and excited by vortexing once for 10 seconds in behaviour studies, or in a sequence (1 minute vortexing, 1 minute rest, 1 minute vortexing) for drug treatment studies. This test sequence was repeated following 5 minutes of rest. Active and fallen flies were quantified over the course of the following minute. To ensure natural behaviour animals were not anesthetized on the day of experiments or over the course of drug application.

[4] = biological target: T5, 5′-phosphatase domain of Synaptojanin-1 (Homo sapiens, UniProt O43426); assay: Malachite Green phosphatase assay; assay type: biochemical; conditions: 1 mM compound, 1% DMSO, 40 μM IP3 substrate, 1 h, background subtracted
T5 construct: made in house
T5 sequence (O43426 528-873): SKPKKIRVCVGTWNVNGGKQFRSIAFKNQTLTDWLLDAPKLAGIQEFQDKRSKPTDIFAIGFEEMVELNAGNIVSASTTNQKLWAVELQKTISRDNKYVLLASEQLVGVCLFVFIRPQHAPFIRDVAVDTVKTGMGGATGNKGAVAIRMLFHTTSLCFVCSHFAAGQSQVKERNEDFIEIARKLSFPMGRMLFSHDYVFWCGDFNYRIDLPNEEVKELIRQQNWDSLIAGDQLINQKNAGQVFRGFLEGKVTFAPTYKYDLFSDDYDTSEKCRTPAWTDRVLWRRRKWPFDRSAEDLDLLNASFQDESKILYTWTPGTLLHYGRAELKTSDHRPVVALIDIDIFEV
Description: First, an expression plasmid for the recombinant expression of the 5′-phosphatase domain of Synj1 (SEQ ID NO:1) was constructed. […] A commercially available assay in a 96-well plate format is the Malachite Green Phosphate Assay Kit (BioAssay Systems).
After assay optimization, the assay is used to measure inhibitory activity of known compounds as well as to further allow a high-throughput setup for compound screening.
The Malachite Green Phosphate Assay Kit (BioAssay Systems) is a discontinuous assay that measures the concentrations of enzymatically released phosphate after formation of a complex with malachite green and molybdate (absorbance is measured at 620 nm). […] As a read-out the Absorbance at 620 nm after 60 min incubation is measured and the background starting signal is subtracted. For inhibitory compound screening, 1 mM of the test compound dissolved in 1% DMSO was used.

wild type Sky1-353 = biological target: T6, wild type Sky1-353 (Drosophila melanogaster, UniProt Q9VIH7); assay: Liposome flotation assay; assay type: binding; conditions: for binding of Sky1-353 to liposomes: PC:PS liposomes enriched with 2% of the indicated phosphoinositide
T6 construct: the TBC domain of Sky (Sky1-353) was expressed from the pET28a vector (Novagen) as an N-terminal His6-tag fusion; His6 (N); made in house; host or cells: E. coli C41 (DE3)
T6 sequence (Q9VIH7 1-353): T1 sequence (Q9VIH7 1-353)
Description: TBC1D24 and Skywalker regulate vesicle trafficking, a process that requires membrane interactions^20,24,30. We therefore hypothesized that the positively charged pocket of Sky serves as a binding module to negatively charged membranes. We used a liposome flotation assay and mixed Sky1-353 with liposomes produced from Folch-extracted total brain lipids and centrifuged the sample in a sucrose gradient. After recovering six fractions from the top to the bottom of the centrifugation tube we find that Sky1-353 is present in the top fractions that contain the liposomes. […] A major class of lipids that regulates presynaptic activity are phosphoinositides^31. Lipid strip interaction experiments using Sky1-353 are indeed compatible with Sky interacting with phosphoinositides. We therefore resorted to liposome flotation assays using liposomes composed of phosphatidylcholine and phosphatidylserine and supplemented with different types of phosphoinositides (FIG. 3b). […] Moreover, the binding can be reversed by adding increasing concentrations of salt, as would be expected from binding that is mainly driven by electrostatic interactions.
Liposomes were prepared using either Folch brain total lipid extract or using a mix of phosphatidylcholine and phosphatidylserine (80:20 ratio) supplemented with 0.5%, 2% or 5% of a specific phosphoinositide as indicated. The liposomes were subsequently incubated with 6 μg of wild-type or mutant Sky1-353. PI(4,5)P2-Grip (Echelon Biosciences, Salt Lake City, USA) was used as a positive control. Subsequently, this mix was loaded on a sucrose cushion (30% sucrose layer, 25% sucrose layer and HP30 buffer layer) and centrifuged. Individual fractions from the top to the bottom were collected and assayed using Western blotting against His6 (Sky) or GST (PI(4,5)P2-Grip).

[5] = PI(4,5)P2 varied from 0% to 5% in liposomes

Compound: CCCCCCCC/C=C\CCCCCCCCCCCCOP(=O)([O-])OCC[N+](C)(C)C [Erufosine]
blood-brain-barrier crossing [1]: known to allow BBB crossing

Compound: O=P(O)(O)O[C@@H]1[C@H](O)[C@H](O)[C@@H](OP(=O)(O)O)[C@H](OP(=O)(O)O)[C@H]1O [IP3, inositol 1,4,5-trisphosphate]
Kd [2]: 19 ± 3 µM
Kd (Sky1-353 R79C mutant): 325 ± 200 µM
increase in thermal stability (Sky1-353 R79C mutant; saturating amount of IP3, R79C mutant): 4 °C
increase in thermal stability (Sky1-353 R281C mutant): 4 °C
Kd (Sky1-353 R335P mutant): 67 ± 17 µM
increase in thermal stability (Sky1-353 R335P mutant; saturating amount of IP3, R335P mutant): 8 °C

Compound: CCCCCCCCCCCCCCCCOP(=O)([O-])OCC[N+](C)(C)C [Miltefosine]
rescue of seizure-like behaviour ([3]; 50 μg/mL in food, 2 days of drug feeding, p<0.001): highly significant; also recorded: significant rescue of seizure-like behaviour
rescue of seizure-like behaviour ([3]; 50 μg/mL in food, 8 days of drug feeding, p<0.1): lasted at least up to 8 days after treatment; also recorded: significant rescue of seizure-like behaviour
rescue of seizure-like behaviour ([3]; 100 μg/mL in food (probably toxic), 2 or 8 days): did not lead to significant difference
inhibition of 5′-phosphatase activity [4]: effective inhibitors; also recorded: complete inhibition

Compound: CCCCCCCCCCCCCCCCCCOP(=O)([O-])OC1CC[N+](C)(C)CC1 [Perifosine]
effect on seizures ([3]; 1000 μg/mL daily in dyed food, up to 8 days): positive effect
inhibition of 5′-phosphatase activity [4]: effective inhibitors
inhibition of 5′-phosphatase activity ([4]; listed as Perisofine): complete inhibition

binding of Sky1-353 to liposomes (wild type Sky1-353): does not bind
Compound: PI(3)P

binding of Sky1-353 to liposomes (wild type Sky1-353): strongest binding
Compound: PI(3,4,5)P3

binding of Sky1-353 to liposomes (wild type Sky1-353): weak but significant binding
Compound: PI(4)P

binding of Sky1-353 to liposomes (wild type Sky1-353): weak but significant binding
Compound: PI(5)P

binding of Sky1-353 to liposomes (wild type Sky1-353): strongest binding
PI(4,5)P2 concentration at which full binding is reached (wild type Sky1-353; [5]): 2%
lowest PI(4,5)P2 concentration at which binding is observed (wild type Sky1-353; [5]): 0.5%
Compound: phosphatidylinositol 4,5-bisphosphate [PI(4,5)P2]

binding of Sky1-353 to liposomes (wild type Sky1-353): does not bind
Compound: phosphatidylinositol [PI]
